Laboratory results: US20030176401A1, “Sodium salt of an azo derivative of 5-aminosalicylic acid” (priority 2000, published 2003)

How the values were obtained:
[1] = Azoreduction after oral administration: distribution of product and UR-12715 in faeces, study in rats; type: in vivo, Sprague-Dawley rats; settings: for relative percentage of Product (administered compound) found in faeces: female rats, 50 mg/kg oral, suspension in 0.2% CMC, mean of 3; for azoreduction after oral administration: rats
Description: (§1) The level of azoreduction has been studied by determining the distribution of UR-12746 and UR-12715 in faeces after the oral administration of UR-12746 and its sodium salt in rats and monkeys.
For the study in rats, 6 female Sprague-Dawley rats weighing between 169 and 185 g were used. UR-12746 and the sodium salt of UR-12746 (polymorph I) were orally administered to three rats each as a suspension in 0.2% carboxymethylcelulose (CMC), at a dose of 50 mg/kg (100 mg of test compound/10 mL of 0.2% CMC).
The rats were placed in metabolic cages, so that urine and faeces could be separately collected, and faeces were collected during the periods 0-24 h and 24-48 h. The faeces collected in the same period were weighted and crumbled. Water was added (2 mL of water/g of faeces) and the paste obtained was stirred to homogeneity. The total weight of the homogenate was then determined.
An aliquot of this homogenate (about 2 g) was mixed with 4 mL of MeOH, stirred in a Vortex and centrifuged for 10 minutes at 4500 rpm (3000 g). The supernatant was filtered through a 0.45 μm filter, and the concentrations of the administered product and metabolite present in the sample were determined by a HPLC chromatographic method with gradient elution and ultraviolet detection, under the conditions detailed below:
The level of azoreduction was determined from the amounts of product and UR-12715 recovered in faeces. The relative percentage of the amounts corresponding to the product (UR-12746 or sodium salt of UR-12746) and to the metabolite (UR-12715) found in faeces after oral administration are shown in Table 3. Results are given as the mean values.

[2] = Azoreduction after oral administration: distribution of product and UR-12715 in faeces, study in monkeys; type: in vivo, Cynomolgus monkeys; settings: for relative percentage of Product (administered compound) found in faeces: 100 mg/kg p.o. (UR-12746 suspension in 0.2% CMC; sodium salt capsules)
Description: as §1
6 Cynomolgus monkeys were used for this study. Each test product was administered to three monkeys, respectively. UR-12746 was administered as a suspension in 0.2% CMC, at a dose of 100 mg/kg p.o. (1000 mg UR-12746/10 mL of 0.2% CMC), whereas the sodium salt of UR-12746 (polymorph I) was administered as individualized capsules for each animal at a dose of 100 mg/kg p.o.
The monkeys were placed in metabolic cages, so that urine and faeces could be separately collected, and faeces corresponding to the periods 0-24 h, 24-48 h and 48-72 h were collected.
The treatment of the faeces and the determination of the amount of administered product and metabolite present in the samples were carried out following the same procedure described above for the study in rats.
As in the rat study, the azoreduction level was determined from the amounts of product and UR-12715 recovered in faeces.

In the case of `Cc1nc2cnccc2n1CC1CCN(C(=O)/C=C(/c2ccccc2)c2ccc(N=Nc3ccc(O)c(C(=O)O)c3)cc2)CC1` [UR-12746, (Z)-2-hydroxy-5-[[4-[3-[4-[(2-methyl-1H-imidazo[4,5-c]pyridin-1-yl)methyl]-1-piperidinyl]-3-oxo-1-phenyl-1-propenyl]phenyl]azo]benzoic acid], the “relative percentage of Product (administered compound) found in faeces” value (“relative percentage of Product” for short) ([1]; faeces 0-24 h) is reported as 78.8%, the “relative percentage of Product” value ([1]; faeces 0-48 h) is reported as 76.1% and the “relative percentage of Product” value ([1]; faeces 24-48 h) is reported as 52.5%. The “azoreduction after oral administration” value [1] was 24%, the “relative percentage of Product” value ([2]; faeces 0-24 h) was greater than 99% and the “relative percentage of Product” value ([2]; faeces 0-72 h) was greater than 99%. The “relative percentage of Product” value ([2]; faeces 24-48 h) was greater than 99%, the “relative percentage of Product” value ([2]; faeces 48-72 h) was greater than 99% and the “azoreduction (metabolization in the colon) after oral administration” value [2] was “no azoreduction”.
With `Cc1nc2cnccc2n1CC1CCN(C(=O)/C=C(/c2ccccc2)c2ccc(N=Nc3ccc(O)c(C(=O)[O-])c3)cc2)CC1.[Na+]` [Sodium salt of UR-12746, sodium salt of (Z)-2-hydroxy-5-[[4-[3-[4-[(2-methyl-1H-imidazo[4,5-c]pyridin-1-yl)methyl]-1-piperidinyl]-3-oxo-1-phenyl-1-propenyl]phenyl]azo]benzoic acid] the “relative percentage of Product” value ([1]; faeces 0-24 h) was 21.1%, the “relative percentage of Product” value ([1]; faeces 0-48 h) was 20.8% and the “relative percentage of Product” value ([1]; faeces 24-48 h) was 12.1%. The “azoreduction after oral administration” value [1] was “around 79%”, the “relative percentage of Product” value ([2]; faeces 0-24 h) was 12.6% and the “relative percentage of Product” value ([2]; faeces 0-72 h) was 9.7%. The “relative percentage of Product” value ([2]; faeces 24-48 h) was 6.5%, the “relative percentage of Product” value ([2]; faeces 48-72 h) was 5.0% and the “azoreduction (metabolization in the colon) after oral administration” value [2] was “around 90%”.
